According to ChEMBL document CHEMBL5038621, “Development of anti-inflammatory peptidomimetics based on the structure of human alpha1-antitrypsin” (2022):
Calls of active or inactive are those of the source. The calls are words filed in the database; no cut-off is given here. Peptide text beside a SMILES is read from it.

Assays:
[1] = target: T1, Neutrophil elastase (Homo sapiens) (UniProt P08246); assay: Inhibition of neutrophil elastase (unknown origin) at 0.96 to 96.15 uM; details: dose 0.96-96.15 µM
T1 sequence (whole entry): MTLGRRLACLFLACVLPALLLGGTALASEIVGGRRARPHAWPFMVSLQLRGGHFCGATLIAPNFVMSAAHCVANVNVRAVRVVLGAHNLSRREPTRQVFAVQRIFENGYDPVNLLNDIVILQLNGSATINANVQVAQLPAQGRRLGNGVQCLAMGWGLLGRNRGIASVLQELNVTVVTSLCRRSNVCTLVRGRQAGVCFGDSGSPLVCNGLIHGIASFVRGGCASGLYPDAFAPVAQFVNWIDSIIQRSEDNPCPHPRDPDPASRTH

[2] = Antiinflammatory activity against LPS-stimulated ThG elicited C57BL/6 mouse peritoneal macrophages assessed as inhibition of LPS-induced IL6 production measured after 24 hrs by Griess assay; type: functional, Peritoneal macrophage; set-up: concentration or dose not given beside the values
[3] = Antiinflammatory activity against LPS-stimulated ThG elicited C57BL/6 mouse peritoneal macrophages assessed as inhibition of LPS-induced NO production measured after 24 hrs by Griess assay; type: functional, Peritoneal macrophage; set-up: concentration or dose not given beside the values
[4] = Antiinflammatory activity against LPS-stimulated ThG elicited C57BL/6 mouse peritoneal macrophages assessed as reduction in cell surface CD86 expression measured after 24 hrs by Flow cytometry analysis; type: functional, Peritoneal macrophage; set-up: concentration or dose not given beside the values
[5] = Antiinflammatory activity against LPS-stimulated ThG elicited C57BL/6 mouse peritoneal macrophages assessed as reduction in cell surface CD40 expression measured after 24 hrs by Flow cytometry analysis; type: functional, Peritoneal macrophage; set-up: concentration or dose not given beside the values
[6] = Antiinflammatory activity against LPS-stimulated ThG elicited C57BL/6 mouse peritoneal macrophages assessed as inhibition of LPS-induced TNFalpha production measured after 24 hrs by ELISA; type: functional, Peritoneal macrophage; set-up: scale not given: the % may be the effect or the level left
Mus musculus [7] = assay: Antiinflammatory activity in LPS-induced C57BL/6 mouse peritonitis model assessed as reduction in CD86 protein expression at 50 ug, ip treated for 3 hrs followed by LPS stimulation and measured after 24 hrs post stimulation by flow cytometry; type: functional; set-up: scale not given: the % may be the effect or the level left; details: dose 50 µg
Mus musculus [8] = assay: Antiinflammatory activity in LPS-induced C57BL/6 mouse peritonitis model assessed as reduction in CD40 protein expression at 50 ug, ip treated for 3 hrs followed by LPS stimulation and measured after 24 hrs post stimulation by flow cytometry; type: functional; set-up: scale not given: the % may be the effect or the level left; details: dose 50 µg
Mus musculus [9] = assay: Antiinflammatory activity in LPS-induced C57BL/6 mouse peritonitis model assessed as reduction in LPS-induced serum TNF alpha levels at 50 ug, ip treated for 3 hrs followed by LPS stimulation and measured after 24 hrs post stimulation by ELISA; type: functional; set-up: scale not given: the % may be the effect or the level left; details: dose 50 µg
Mus musculus [10] = assay: Antiinflammatory activity in LPS-induced C57BL/6 mouse peritonitis model assessed as reduction in LPS-induced serum IL-6 levels at 50 ug, ip treated for 3 hrs followed by LPS stimulation and measured after 24 hrs post stimulation by ELISA; type: functional; set-up: scale not given: the % may be the effect or the level left; details: dose 50 µg
Mus musculus [11] = assay: Antiinflammatory activity in LPS-induced C57BL/6 mouse peritonitis model assessed as increase in F4/80 peritoneal cell population at 50 ug, ip treated for 3 hrs followed by LPS stimulation and measured after 24 hrs post stimulation by flow cytometry; type: functional; details: dose 50 µg
Mus musculus [12] = assay: Antiinflammatory activity in LPS-induced C57BL/6 mouse peritonitis model assessed as increase in Gr1 cell population at 50 ug, ip treated for 3 hrs followed by LPS stimulation and measured after 24 hrs post stimulation by flow cytometry; type: functional; details: dose 50 µg

| SMILES | inhibition [1] | Activity [2] [%] | Activity [3] [%] | Activity [4] [%] | Activity [5] [%] | also measured |
| --- | --- | --- | --- | --- | --- | --- |
| CC(=O)N[C@@H](Cc1ccccc1)C(=O)N[C@@H](CCCNC(=N)N)C(=O)N[C@@H](Cc1ccc(O)cc1)C(=O)N[C@@H](CC(C)C)C(=O)N[C@H](C(=O)N[C@@H](CC(C)C)C(=O)N[C@@H](Cc1ccccc1)C(N)=O)C(C)C (Ac-FRYLVLF-NH2) | inactive |  |  |  |  |  |
| CC(=O)N[C@@H](CC(C)C)C(=O)N[C@@H](CCC(=O)O)C(=O)NCC(=O)N1CCC[C@H]1C(=O)N[C@@H](CCCCN)C(=O)N[C@@H](C)C(N)=O (Ac-LEGPKA-NH2) | inactive |  |  |  |  |  |
| COc1cccc(C(=O)NC(Cc2c[nH]cn2)C(=O)NCc2ccc(C(N)=O)cc2)c1OC (configuration not stated) |  | 46.3 | 29.5 |  |  |  |
| CC(=O)N[C@@H](CCC(N)=O)C(=O)N[C@@H](Cc1ccccc1)C(=O)N[C@@H](Cc1ccccc1)C(=O)N[C@@H](CCCCN)C(=O)NCC(=O)N[C@@H](CCCCN)C(N)=O (Ac-QFFKGK-NH2) | inactive |  | 51.8 | 35.2 | 41.6 |  |
| NC(=O)CCC(NC(=O)C1Cc2nc[nH]c2CN1)C(N)=O (configuration not stated) |  | 46.3 |  |  |  | Activity [6]: 24.4% |
| COc1cccc(C(=O)NC(Cc2c[nH]cn2)C(=O)NC(C(N)=O)c2ccccc2)c1OC (configuration not stated) |  | 46.3 |  |  |  |  |
| CC[C@H](C)[C@H](NC(=O)[C@H](CCC(=O)O)NC(=O)[C@H](CC(C)C)NC(=O)[C@H](CCCCN)NC(=O)[C@H](CCCCN)NC(=O)[C@H](CS)NC(=O)[C@H](Cc1c[nH]cn1)NC(=O)[C@H](CCC(N)=O)NC(C)=O)C(=O)N[C@@H](CCCCN)C(N)=O (Ac-QHCKKLEIK-NH2) | inactive |  |  |  |  |  |
| NC(=O)c1ccc(CNC(=O)C(Cc2c[nH]cn2)NCc2cccc(O)c2)cc1 (configuration not stated) |  | 46.3 |  |  |  |  |
| NC(=O)C(NC(=O)C(Cc1c[nH]cn1)NCc1ccc(O)cc1)c1ccccc1 (configuration not stated) |  | 33.5 | 38.7 | 16.4 | 27.4 | Activity (Mus musculus [7]): 45.6%; Activity (Mus musculus [8]): 47.3%; Activity (Mus musculus [9]): 73.4%; Activity (Mus musculus [10]): 80.6%; Activity (Mus musculus [11]): 130.4%; Activity [6]: 19.9%; Activity (Mus musculus [12]): 48.4% |
| NC(=O)c1ccc(CNC(=O)C(Cc2c[nH]cn2)NCc2ccc(O)cc2)cc1 (configuration not stated) |  | 46.3 |  | 20.4 | 49.3 |  |
| CC(=O)N[C@@H](Cc1ccc(O)cc1)C(=O)N[C@@H](CCCNC(=N)N)C(=O)N[C@@H](C)C(=O)N[C@@H](Cc1c[nH]cn1)C(=O)N[C@@H](CCC(N)=O)C(=O)NCC(=O)N[C@@H](CCC(=O)O)C(N)=O (Ac-YRAHQGE-NH2) | inactive | 52.2 | 66.9 | 52.4 | 55.3 |  |
| CC[C@H](C)[C@H](NC(=O)[C@@H](NC(=O)[C@H](Cc1ccc(O)cc1)NC(=O)[C@H](CC(C)C)NC(=O)[C@H](Cc1ccccc1)NC(=O)[C@H](CC(C)C)NC(C)=O)C(C)C)C(=O)N[C@@H](Cc1c[nH]cn1)C(N)=O (Ac-LFLYVIH-NH2) | inactive | 38.4 | 57.6 |  | 45.7 |  |
| CC[C@H](C)[C@H](NC(=O)[C@H](CO)NC(=O)[C@H](CC(C)C)NC(=O)[C@H](CC(C)C)NC(=O)[C@@H](NC(=O)CNC(=O)[C@@H](NC(=O)[C@H](C)NC(C)=O)[C@@H](C)O)[C@@H](C)O)C(=O)N[C@@H](CC(N)=O)C(N)=O (Ac-ATGTLLSIN-NH2) | inactive |  |  |  |  |  |
| CC(=O)N[C@@H](CC(=O)O)C(=O)N[C@@H](CC(C)C)C(=O)N[C@@H](CCCCN)C(=O)N[C@@H](CCCCN)C(=O)N[C@@H](CC(=O)O)C(=O)N[C@@H](CCCCN)C(=O)N[C@@H](C)C(N)=O (Ac-DLKKDKA-NH2) | inactive |  |  |  |  |  |
| CC(=O)N[C@@H](CC(C)C)C(=O)N1CCC[C@H]1C(=O)N[C@@H](CC(N)=O)C(=O)N[C@@H](CO)C(=O)N[C@@H](CC(C)C)C(=O)NCC(=O)N[C@@H](CC(N)=O)C(N)=O (Ac-LPNSLGN-NH2) | inactive |  | 70.3 | 24.7 |  |  |
| CC(=O)N[C@@H](Cc1c[nH]cn1)C(=O)N[C@@H](CS)C(=O)N[C@@H](CCCCN)C(=O)N[C@@H](CCCCN)C(=O)N[C@@H](CC(C)C)C(=O)NCC(=O)N[C@@H](CCCCN)C(=O)N[C@@H](Cc1ccccc1)C(N)=O (Ac-HCKKLGKF-NH2) | inactive |  |  |  |  |  |
